Assays:
Test in all cases: Test D pre/postemergence
Type in all cases: in vivo
Details in all cases: scale 0 to 100 (100 = complete control)
[1] = tested on: wheat (Triticum aestivum)
Outline: (§1)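 Formulation: non-phytotoxic solvent mix + surfactant; applied pre-emergence to seeds and post-emergence to 1–4 leaf plants (2–18 cm). Growth chamber 15–25 d; visual comparison with controls, 0 = no effect to 100 = complete control.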

[2] = tested on: wild mustard (Sinapis arvensis)
Outline: as §1

[3] = tested on: lambsquarters (Chenopodium album)
Outline: as §1

[4] = tested on: catchweed bedstraw (galium; Galium aparine)
Outline: as §1

[5] = tested on: wild buckwheat (Polygonum convolvulus)
Outline: as §1

[6] = tested on: Russian thistle (Salsola kali)
Outline: as §1

kochia (Kochia scoparia) = tested on: kochia (Kochia scoparia)
Outline: as §1

COC(=O)c1nc(-c2ccc(Cl)cc2)nc(N)c1Cl [Compound 58, methyl 6-amino-5-chloro-2-(4-chlorophenyl)-4-pyrimidinecarboxylate]
Plant response rating, Wheat ([1]; Postemergence, 62 g ai/ha): 55 | Plant response rating, Wheat ([1]; Postemergence, 125 g ai/ha): 60 | Plant response rating, Wheat ([1]; Postemergence, 250 g ai/ha): 70 | Plant response rating, Wheat ([1]; Postemergence, 500 g ai/ha): 85 | Plant response rating, Wheat ([1]; Preemergence, 62 g ai/ha): 25 | Plant response rating, Wheat ([1]; Preemergence, 125 g ai/ha): 50 | Plant response rating, Wheat ([1]; Preemergence, 250 g ai/ha): 60 | Plant response rating, Wheat ([1]; Preemergence, 500 g ai/ha): 70 | Plant response rating, Mustard, Wild ([2]; Postemergence, 62 g ai/ha): 100 | Plant response rating, Mustard, Wild ([2]; Postemergence, 125 g ai/ha): 100 | Plant response rating, Mustard, Wild ([2]; Postemergence, 250 g ai/ha): 100 | Plant response rating, Mustard, Wild ([2]; Postemergence, 500 g ai/ha): 100 | Plant response rating, Mustard, Wild ([2]; Preemergence, 62 g ai/ha): 65 | Plant response rating, Mustard, Wild ([2]; Preemergence, 125 g ai/ha): 100 | Plant response rating, Mustard, Wild ([2]; Preemergence, 250 g ai/ha): 100 | Plant response rating, Mustard, Wild ([2]; Preemergence, 500 g ai/ha): 100 | Plant response rating, Lambsquarters ([3]; Postemergence, 62 g ai/ha): 80 | Plant response rating, Lambsquarters ([3]; Postemergence, 125 g ai/ha): 85 | Plant response rating, Lambsquarters ([3]; Postemergence, 250 g ai/ha): 100 | Plant response rating, Lambsquarters ([3]; Postemergence, 500 g ai/ha): 100 | Plant response rating, Lambsquarters ([3]; Preemergence, 62 g ai/ha): 60 | Plant response rating, Lambsquarters ([3]; Preemergence, 125 g ai/ha): 100 | Plant response rating, Lambsquarters ([3]; Preemergence, 250 g ai/ha): 100 | Plant response rating, Lambsquarters ([3]; Preemergence, 500 g ai/ha): 100 | Plant response rating, Galium ([4]; Postemergence, 62 g ai/ha): 100 | Plant response rating, Galium ([4]; Postemergence, 125 g ai/ha): 100 | Plant response rating, Galium ([4]; Postemergence, 250 g ai/ha): 100 | Plant response rating, Galium ([4]; Postemergence, 500 g ai/ha): 100 | Plant response rating, Galium ([4]; Preemergence, 62 g ai/ha): 100 | Plant response rating, Galium ([4]; Preemergence, 125 g ai/ha): 100 | Plant response rating, Galium ([4]; Preemergence, 250 g ai/ha): 100 | Plant response rating, Galium ([4]; Preemergence, 500 g ai/ha): 100 | Plant response rating, Buckwheat, Wild ([5]; Postemergence, 62 g ai/ha): 65 | Plant response rating, Buckwheat, Wild ([5]; Postemergence, 125 g ai/ha): 90 | Plant response rating, Buckwheat, Wild ([5]; Postemergence, 250 g ai/ha): 100 | Plant response rating, Buckwheat, Wild ([5]; Postemergence, 500 g ai/ha): 100 | Plant response rating, Buckwheat, Wild ([5]; Preemergence, 62 g ai/ha): 40 | Plant response rating, Buckwheat, Wild ([5]; Preemergence, 125 g ai/ha): 80 | Plant response rating, Buckwheat, Wild ([5]; Preemergence, 250 g ai/ha): 100 | Plant response rating, Buckwheat, Wild ([5]; Preemergence, 500 g ai/ha): 100 | Plant response rating, Russian Thistle ([6]; Postemergence, 62 g ai/ha): 70 | Plant response rating, Russian Thistle ([6]; Postemergence, 125 g ai/ha): 70 | Plant response rating, Russian Thistle ([6]; Postemergence, 250 g ai/ha): 70 | Plant response rating, Russian Thistle ([6]; Postemergence, 500 g ai/ha): 80 | Plant response rating, Russian Thistle ([6]; Preemergence, 62 g ai/ha): 40 | Plant response rating, Russian Thistle ([6]; Preemergence, 125 g ai/ha): 65 | Plant response rating, Russian Thistle ([6]; Preemergence, 250 g ai/ha): 70 | Plant response rating, Russian Thistle ([6]; Preemergence, 500 g ai/ha): 85 | Plant response rating, Kochia (kochia (Kochia scoparia); Postemergence, 62 g ai/ha): 70 | Plant response rating, Kochia (kochia (Kochia scoparia); Postemergence, 125 g ai/ha): 100 | Plant response rating, Kochia (kochia (Kochia scoparia); Postemergence, 250 g ai/ha): 100 | Plant response rating, Kochia (kochia (Kochia scoparia); Postemergence, 500 g ai/ha): 100 | Plant response rating, Kochia (kochia (Kochia scoparia); Preemergence, 62 g ai/ha): 35 | Plant response rating, Kochia (kochia (Kochia scoparia); Preemergence, 125 g ai/ha): 95 | Plant response rating, Kochia (kochia (Kochia scoparia); Preemergence, 250 g ai/ha): 100 | Plant response rating, Kochia (kochia (Kochia scoparia); Preemergence, 500 g ai/ha): 100

COC(=O)c1nc(C2CC2)nc(N)c1Br [Compound 2, methyl 6-amino-5-bromo-2-cyclopropyl-4-pyrimidinecarboxylate]
Plant response rating, Wheat ([1]; Postemergence, 16 g ai/ha): 70 | Plant response rating, Wheat ([1]; Postemergence, 31 g ai/ha): 70 | Plant response rating, Wheat ([1]; Postemergence, 62 g ai/ha): 100 | Plant response rating, Wheat ([1]; Postemergence, 125 g ai/ha): 100 | Plant response rating, Wheat ([1]; Preemergence, 16 g ai/ha): 45 | Plant response rating, Wheat ([1]; Preemergence, 31 g ai/ha): 60 | Plant response rating, Wheat ([1]; Preemergence, 62 g ai/ha): 70 | Plant response rating, Wheat ([1]; Preemergence, 125 g ai/ha): 70 | Plant response rating, Mustard, Wild ([2]; Postemergence, 16 g ai/ha): 65 | Plant response rating, Mustard, Wild ([2]; Postemergence, 31 g ai/ha): 65 | Plant response rating, Mustard, Wild ([2]; Postemergence, 62 g ai/ha): 70 | Plant response rating, Mustard, Wild ([2]; Postemergence, 125 g ai/ha): 80 | Plant response rating, Mustard, Wild ([2]; Preemergence, 16 g ai/ha): 50 | Plant response rating, Mustard, Wild ([2]; Preemergence, 31 g ai/ha): 70 | Plant response rating, Mustard, Wild ([2]; Preemergence, 62 g ai/ha): 70 | Plant response rating, Mustard, Wild ([2]; Preemergence, 125 g ai/ha): 85 | Plant response rating, Lambsquarters ([3]; Postemergence, 16 g ai/ha): 60 | Plant response rating, Lambsquarters ([3]; Postemergence, 31 g ai/ha): 100 | Plant response rating, Lambsquarters ([3]; Postemergence, 62 g ai/ha): 100 | Plant response rating, Lambsquarters ([3]; Postemergence, 125 g ai/ha): 100 | Plant response rating, Lambsquarters ([3]; Preemergence, 31 g ai/ha): 85 | Plant response rating, Lambsquarters ([3]; Preemergence, 62 g ai/ha): 95 | Plant response rating, Lambsquarters ([3]; Preemergence, 125 g ai/ha): 100 | Plant response rating, Galium ([4]; Postemergence, 16 g ai/ha): 75 | Plant response rating, Galium ([4]; Postemergence, 31 g ai/ha): 100 | Plant response rating, Galium ([4]; Postemergence, 62 g ai/ha): 100 | Plant response rating, Galium ([4]; Postemergence, 125 g ai/ha): 100 | Plant response rating, Galium ([4]; Preemergence, 16 g ai/ha): 80 | Plant response rating, Galium ([4]; Preemergence, 31 g ai/ha): 90 | Plant response rating, Galium ([4]; Preemergence, 62 g ai/ha): 98 | Plant response rating, Galium ([4]; Preemergence, 125 g ai/ha): 100 | Plant response rating, Buckwheat, Wild ([5]; Postemergence, 16 g ai/ha): 45 | Plant response rating, Buckwheat, Wild ([5]; Postemergence, 31 g ai/ha): 65 | Plant response rating, Buckwheat, Wild ([5]; Postemergence, 62 g ai/ha): 90 | Plant response rating, Buckwheat, Wild ([5]; Postemergence, 125 g ai/ha): 95 | Plant response rating, Buckwheat, Wild ([5]; Preemergence, 16 g ai/ha): 45 | Plant response rating, Buckwheat, Wild ([5]; Preemergence, 31 g ai/ha): 65 | Plant response rating, Buckwheat, Wild ([5]; Preemergence, 62 g ai/ha): 80 | Plant response rating, Buckwheat, Wild ([5]; Preemergence, 125 g ai/ha): 85 | Plant response rating, Russian Thistle ([6]; Postemergence, 16 g ai/ha): 65 | Plant response rating, Russian Thistle ([6]; Postemergence, 31 g ai/ha): 85 | Plant response rating, Russian Thistle ([6]; Postemergence, 62 g ai/ha): 95 | Plant response rating, Russian Thistle ([6]; Postemergence, 125 g ai/ha): 100 | Plant response rating, Russian Thistle ([6]; Preemergence, 16 g ai/ha): 85 | Plant response rating, Russian Thistle ([6]; Preemergence, 31 g ai/ha): 100 | Plant response rating, Russian Thistle ([6]; Preemergence, 62 g ai/ha): 100 | Plant response rating, Russian Thistle ([6]; Preemergence, 125 g ai/ha): 100 | Plant response rating, Kochia (kochia (Kochia scoparia); Postemergence, 16 g ai/ha): 75 | Plant response rating, Kochia (kochia (Kochia scoparia); Postemergence, 31 g ai/ha): 100 | Plant response rating, Kochia (kochia (Kochia scoparia); Postemergence, 62 g ai/ha): 100 | Plant response rating, Kochia (kochia (Kochia scoparia); Postemergence, 125 g ai/ha): 100 | Plant response rating, Kochia (kochia (Kochia scoparia); Preemergence, 16 g ai/ha): 55 | Plant response rating, Kochia (kochia (Kochia scoparia); Preemergence, 31 g ai/ha): 70 | Plant response rating, Kochia (kochia (Kochia scoparia); Preemergence, 62 g ai/ha): 100 | Plant response rating, Kochia (kochia (Kochia scoparia); Preemergence, 125 g ai/ha): 100

Source: patent US8802597B2, “Herbicidal pyrimidines” (E I du Pont de Nemours and Company, priority 2003, dated 2014)
